From patent publication US12570642B2, “GLP-IR modulating compounds” (Gilead Sciences, Inc., priority 2021, dated 2026)

molecular target: GLP-1R (Homo sapiens, UniProt P43220); assay: GLP-1R Activation - cAMP Assay; assay type: cell-based; details: cAMP increase in CHO cells stably expressing GLP-1R; each compound run on one of the two cAMP assays (Assay 1 or Assay 2, not specified)
How it was run: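 CHO cells stably expressing GLP-1R, plated at 1,000 cells/well overnight, then equilibrated 1 h in HBSS with 20 mM Hepes and 0.1% BSA. Agonist added as 10-point dose response for 30 min at 37 °C. cAMP measured by HTRF (Cisbio Gs Dynamic kit); EC50 from sigmoidal fit.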

Chain of GLP-1R (P43220 24-463): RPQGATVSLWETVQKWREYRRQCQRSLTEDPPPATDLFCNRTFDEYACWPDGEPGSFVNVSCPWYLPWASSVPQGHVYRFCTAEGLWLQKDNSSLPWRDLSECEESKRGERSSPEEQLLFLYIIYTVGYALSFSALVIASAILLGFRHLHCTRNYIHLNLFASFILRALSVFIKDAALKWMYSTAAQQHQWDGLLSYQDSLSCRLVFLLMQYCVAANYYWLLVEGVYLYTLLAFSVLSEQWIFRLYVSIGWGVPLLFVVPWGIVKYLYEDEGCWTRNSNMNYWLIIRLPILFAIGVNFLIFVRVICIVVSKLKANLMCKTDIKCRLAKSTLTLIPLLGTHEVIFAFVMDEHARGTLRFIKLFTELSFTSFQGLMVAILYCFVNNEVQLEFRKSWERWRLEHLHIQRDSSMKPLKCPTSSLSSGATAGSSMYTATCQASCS

SMILES | EC50 [nM]
CC1(C)COC[C@H]1n1c(Cc2cc(F)c(-c3cc(C(F)F)cc(OCc4ccc(Cl)cc4F)n3)cc2F)nc2ccc(C(=O)O)cc21 [Example 447, (S)-2-(4-(6-((4-chloro-2-fluorobenzyl)oxy)-4-(difluoromethyl)pyridin-2-yl)-2,5-difluorobenzyl)-1-(4,4-dimethyltetrahydrofuran-3-yl)-1H-benzo[d]imidazole-6-carboxylic acid] | 1.39
CC1(C)COC[C@H]1n1c(Cc2cc(F)c(-c3cccc(OCc4ccc(-n5cncn5)cc4)n3)cc2F)nc2ccc(C(=O)O)cc21 [Example 448, (S)-2-(4-(6-((4-(1H-1,2,4-triazol-1-yl)benzyl)oxy)pyridin-2-yl)-2,5-difluorobenzyl)-1-(4,4-dimethyltetrahydrofuran-3-yl)-1H-benzo[d]imidazole-6-carboxylic acid] | 0.352
Cc1cc(COc2cccc(-c3cc(F)c(Cc4nc5ccc(C(=O)O)cc5n4[C@@H]4COCC4(C)C)cc3F)n2)c(F)cc1Cl [Example 450, (S)-2-(4-(6-((4-chloro-2-fluoro-5-methylbenzyl)oxy)pyridin-2-yl)-2,5-difluorobenzyl)-1-(4,4-dimethyltetrahydrofuran-3-yl)-1H-benzo[d]imidazole-6-carboxylic acid] | 1.04
CC1(C)COC[C@H]1n1c(Cc2cc(F)c(-c3cccc(OCc4c(F)cc(Cl)cc4F)n3)cc2F)nc2ccc(C(=O)O)cc21 [Example 453, (S)-2-(4-(6-((4-chloro-2,6-difluorobenzyl)oxy)pyridin-2-yl)-2,5-difluorobenzyl)-1-(4,4-dimethyltetrahydrofuran-3-yl)-1H-benzo[d]imidazole-6-carboxylic acid] | 0.527
CC1(C)COC[C@H]1n1c(Cc2cc(F)c(-c3cccc(OCc4cc(F)c(F)cc4Cl)n3)cc2F)nc2ccc(C(=O)O)cc21 [Example 454, (S)-2-(4-(6-((2-chloro-4,5-difluorobenzyl)oxy)pyridin-2-yl)-2,5-difluorobenzyl)-1-(4,4-dimethyltetrahydrofuran-3-yl)-1H-benzo[d]imidazole-6-carboxylic acid] | 0.477
CC1(C)COC[C@H]1n1c(Cc2cc(F)c(-c3cccc(OCc4cc(F)c(F)cc4F)n3)cc2F)nc2ccc(C(=O)O)cc21 [Example 455, (S)-2-(2,5-difluoro-4-(6-((2,4,5-trifluorobenzyl)oxy)pyridin-2-yl)benzyl)-1-(4,4-dimethyltetrahydrofuran-3-yl)-1H-benzo[d]imidazole-6-carboxylic acid] | 0.126
Cc1cc(F)c(COc2cccc(-c3cc(F)c(Cc4nc5ccc(C(=O)O)cc5n4[C@@H]4COCC4(C)C)cc3F)n2)cc1F [Example 456, (S)-2-(4-(6-((2,5-difluoro-4-methylbenzyl)oxy)pyridin-2-yl)-2,5-difluorobenzyl)-1-(4,4-dimethyltetrahydrofuran-3-yl)-1H-benzo[d]imidazole-6-carboxylic acid] | 0.332
CC1(C)COC[C@H]1n1c(Cc2cc(F)c(-c3cccc(OCc4ccc(F)c(F)c4)n3)cc2F)nc2ccc(C(=O)O)cc21 [Example 457, (S)-2-(4-(6-((3,4-difluorobenzyl)oxy)pyridin-2-yl)-2,5-difluorobenzyl)-1-(4,4-dimethyltetrahydrofuran-3-yl)-1H-benzo[d]imidazole-6-carboxylic acid] | 0.157
CC1(C)COC[C@H]1n1c(Cc2cc(F)c(-c3cccc(OCc4c(F)cc(F)cc4F)n3)cc2F)nc2ccc(C(=O)O)cc21 [Example 458, (S)-2-(2,5-difluoro-4-(6-((2,4,6-trifluorobenzyl)oxy)pyridin-2-yl)benzyl)-1-(4,4-dimethyltetrahydrofuran-3-yl)-1H-benzo[d]imidazole-6-carboxylic acid] | 0.315
Cc1cc(F)c(COc2cccc(-c3cc(F)c(Cc4nc5ccc(C(=O)O)cc5n4[C@@H]4COCC4(C)C)cc3F)n2)cc1Cl [Example 459, (S)-2-(4-(6-((5-chloro-2-fluoro-4-methylbenzyl)oxy)pyridin-2-yl)-2,5-difluorobenzyl)-1-(4,4-dimethyltetrahydrofuran-3-yl)-1H-benzo[d]imidazole-6-carboxylic acid] | 0.8
COC[C@H]1COC[C@H]1n1c(Cc2cc(F)c(-c3ccc(F)c(OCc4ccc(C#N)cc4)n3)cc2F)nc2ccc(C(=O)O)cc21 [Example 467, 2-(4-(6-((4-cyanobenzyl)oxy)-5-fluoropyridin-2-yl)-2,5-difluorobenzyl)-1-((3S,4S)-4-(methoxymethyl)tetrahydrofuran-3-yl)-1H-benzo[d]imidazole-6-carboxylic acid] | 0.077
COC[C@H]1COC[C@H]1n1c(Cc2cc(F)c(-c3cccc(OCc4ccc(C#N)cc4)n3)cc2F)nc2ccc(C(=O)O)cc21 [Example 468, 2-(4-(6-((4-cyanobenzyl)oxy)pyridin-2-yl)-2,5-difluorobenzyl)-1-((3S,4S)-4-(methoxymethyl)tetrahydrofuran-3-yl)-1H-benzo[d]imidazole-6-carboxylic acid] | 0.118
CC1(C)COC[C@H]1n1c(Cc2cc(F)c(-c3cccc(OCc4ccc(Cl)cc4C(F)(F)F)n3)cc2F)nc2ccc(C(=O)O)cc21 [Example 469, (S)-2-(4-(6-((4-chloro-2-(trifluoromethyl)benzyl)oxy)pyridin-2-yl)-2,5-difluorobenzyl)-1-(4,4-dimethyltetrahydrofuran-3-yl)-1H-benzo[d]imidazole-6-carboxylic acid] | 1.6

Results, then the molecule that gave them:

EC50 [nM] | SMILES
0.2 | CC1(C)COC[C@H]1n1c(Cc2cc(F)c(-c3cccc(OCc4ccccc4C#N)n3)cc2F)nc2ccc(C(=O)O)cc21 [Example 446, (S)-2-(4-(6-((2-cyanobenzyl)oxy)pyridin-2-yl)-2,5-difluorobenzyl)-1-(4,4-dimethyltetrahydrofuran-3-yl)-1H-benzo[d]imidazole-6-carboxylic acid]
0.021 | CC1(C)COC[C@H]1n1c(Cc2cc(F)c(-c3cccc(OCc4ccc(Cl)cc4C#N)n3)cc2F)nc2ccc(C(=O)O)cc21 [Example 449, (S)-2-(4-(6-((4-chloro-2-cyanobenzyl)oxy)pyridin-2-yl)-2,5-difluorobenzyl)-1-(4,4-dimethyltetrahydrofuran-3-yl)-1H-benzo[d]imidazole-6-carboxylic acid]
0.621 | CC1(C)COC[C@H]1n1c(Cc2cc(F)c(-c3cccc(OCc4ccc(F)c(F)c4F)n3)cc2F)nc2ccc(C(=O)O)cc21 [Example 451, (S)-2-(2,5-difluoro-4-(6-((2,3,4-trifluorobenzyl)oxy)pyridin-2-yl)benzyl)-1-(4,4-dimethyltetrahydrofuran-3-yl)-1H-benzo[d]imidazole-6-carboxylic acid]
0.564 | Cc1ccc(COc2cccc(-c3cc(F)c(Cc4nc5ccc(C(=O)O)cc5n4[C@@H]4COCC4(C)C)cc3F)n2)cc1Cl [Example 452, (S)-2-(4-(6-((3-chloro-4-methylbenzyl)oxy)pyridin-2-yl)-2,5-difluorobenzyl)-1-(4,4-dimethyltetrahydrofuran-3-yl)-1H-benzo[d]imidazole-6-carboxylic acid]
0.096 | CC1(C)COC[C@H]1n1c(Cc2cc(F)c(-c3cccc(OCc4ccc(C#N)cc4Cl)n3)cc2F)nc2ccc(C(=O)O)cc21 [Example 460, (S)-2-(4-(6-((2-chloro-4-cyanobenzyl)oxy)pyridin-2-yl)-2,5-difluorobenzyl)-1-(4,4-dimethyltetrahydrofuran-3-yl)-1H-benzo[d]imidazole-6-carboxylic acid]
0.067 | COc1cc(C#N)ccc1COc1cccc(-c2cc(F)c(Cc3nc4ccc(C(=O)O)cc4n3[C@@H]3COCC3(C)C)cc2F)n1 [Example 461, (S)-2-(4-(6-((4-cyano-2-methoxybenzyl)oxy)pyridin-2-yl)-2,5-difluorobenzyl)-1-(4,4-dimethyltetrahydrofuran-3-yl)-1H-benzo[d]imidazole-6-carboxylic acid]
0.141 | COc1cc(Cl)ccc1COc1cccc(-c2cc(F)c(Cc3nc4ccc(C(=O)O)cc4n3[C@@H]3COCC3(C)C)cc2F)n1 [Example 462, (S)-2-(4-(6-((4-chloro-2-methoxybenzyl)oxy)pyridin-2-yl)-2,5-difluorobenzyl)-1-(4,4-dimethyltetrahydrofuran-3-yl)-1H-benzo[d]imidazole-6-carboxylic acid]
0.209 | Cc1ccc(COc2cccc(-c3cc(F)c(Cc4nc5ccc(C(=O)O)cc5n4[C@@H]4COCC4(C)C)cc3F)n2)c(F)c1 [Example 463, (S)-2-(2,5-difluoro-4-(6-((2-fluoro-4-methylbenzyl)oxy)pyridin-2-yl)benzyl)-1-(4,4-dimethyltetrahydrofuran-3-yl)-1H-benzo[d]imidazole-6-carboxylic acid]
0.172 | CC1(C)COC[C@H]1n1c(Cc2cc(F)c(-c3cccc(OCc4ccc(F)cc4Cl)n3)cc2F)nc2ccc(C(=O)O)cc21 [Example 464, (S)-2-(4-(6-((2-chloro-4-fluorobenzyl)oxy)pyridin-2-yl)-2,5-difluorobenzyl)-1-(4,4-dimethyltetrahydrofuran-3-yl)-1H-benzo[d]imidazole-6-carboxylic acid]
0.18 | Cc1cc(F)ccc1COc1cccc(-c2cc(F)c(Cc3nc4ccc(C(=O)O)cc4n3[C@@H]3COCC3(C)C)cc2F)n1 [Example 465, (S)-2-(2,5-difluoro-4-(6-((4-fluoro-2-methylbenzyl)oxy)pyridin-2-yl)benzyl)-1-(4,4-dimethyltetrahydrofuran-3-yl)-1H-benzo[d]imidazole-6-carboxylic acid]
0.124 | CC1(C)COC[C@H]1n1c(Cc2cc(F)c(-c3cccc(OCc4ccc(F)cc4F)n3)cc2F)nc2ccc(C(=O)O)cc21 [Example 466, (S)-2-(4-(6-((2,4-difluorobenzyl)oxy)pyridin-2-yl)-2,5-difluorobenzyl)-1-(4,4-dimethyltetrahydrofuran-3-yl)-1H-benzo[d]imidazole-6-carboxylic acid]
